Consider five compounds from patent US20100113550A1, “New Crystal Forms” (BIAL - PORTELA AND CA, S.A., priority 2006, published 2010).

Format in all cases: physicochemical
Data set [1] is described as follows: Approximate solubilities (solvent added until a solution forms). From the text:
Approximate solubilities of compound 1, Form A in aqueous mixtures containing high concentrations of organic solvents are given in Table 1. [table]

Data set [2] is described as follows: RH stability: storage at controlled relative humidity or drying, checked by XRPD and for deliquescence. From the text: Form A samples were stored at lower relative humidities of approximately 9-11, 23 and 32% RH and analyzed by XRPD and Karl-Fischer titration analysis after four weeks (Tables 30 and 31). The samples appeared to be Form A by XRPD. […] Note that the water content in the samples at 23 and 32% RH was slightly higher compared to the initial batch of Form A.
Form X samples were stored at relative humidities of approximately 43, 75 and 90% RH and analyzed by XRPD and Karl-Fischer titration analysis after five weeks (Tables 34 and 35).

A short description of data set [3]: Coulometric Karl Fischer titration for water determination. How it is done: Coulometric Karl Fischer (KF) analysis for water determination was performed using a Mettler Toledo DL39 Karl Fischer titrator. Samples were placed in the KF titration vessel containing approximately Hydranal—Coulomat AD and mixed for 60 seconds to ensure dissolution. The sample was then titrated by means of a generator electrode which produces iodine by electrochemical oxidation: 2I−=>I2+2e. Three replicates were obtained to ensure reproducibility. A NIST-traceable water standard (Hydranal Water Standard 10.0) was analyzed to check the operation of the coulometer. Data were collected and analyzed using LabX Pro Titration v2.10.000.

Data set [4] can be described thus: RH stability: storage at controlled relative humidity or drying, checked by XRPD and for deliquescence. This is another data set of the same source.
Data set [5] is described as follows: Interconversion studies of Forms A and C (slurries, XRPD). How it is done:
A slurry of compound 1, Form A, was prepared in a given solvent and loaded on an orbit shaker at either ambient or elevated temperature for at least 1 day. The liquid phase of the slurry was drawn off with a pipette and filtered through a 0.2-μm filter. A slurry containing compound 1 forms A and C was prepared using the filtered liquid phase from the Form A slurry. The mixture was then loaded on an orbit shaker in a sealed vial at either ambient or elevated temperature for 1 or 7 days. The solids were isolated by vacuum filtration or by drawing the liquid phase off with a pipette and allowing the solids to air dry at ambient conditions prior to analysis. The resulting Forms were characterised by XRPD.

Where [6] appears, read: acetone:water 99:1, hydrochloride.

Read-outs that look alike come from different tables or passages of the source.

As usually defined, the solubility is how much of the substance goes into solution per volume. In the case of `Cl.NCCc1c[nH]c(=S)n1[C@H]1COc2c(F)cc(F)cc2C1` [Amorphous, (R)-5-(2-Aminoethyl)-1-(6,8-difluorochroman-3-yl)-1,3-dihydroimidazole-2-thione hydrochloride], the solubility in data set [1] (2,2,2-trifluoroethanol, 50 °C, organic solvent or mixture, 2,2,2-trifluoroethanol, 50° C., read-out: Solubility (approximate) at elevated temperature) was 8 mg/mL; in data set [1] (ethanol, 53 °C, organic solvent or mixture, ethanol, 53° C., read-out: Solubility (approximate) at elevated temperature), 11 mg/mL; in data set [1] (methyl iso-butyl ketone, organic solvent or mixture, methyl iso-butyl ketone, read-out: Solubility (approximate)), less than 1 mg/mL. In addition, the “Solubility (approximate)” value in data set [1] (2,2,2-trifluoroethanol, hydrochloride) is reported as 8 mg/mL; in data set [1] (acetone, hydrochloride) it was 49 mg/mL; in data set [1] (acetonitrile), less than 1 mg/mL; in data set [1] (ethanol, hydrochloride), 10 mg/mL; in data set [1] (ethyl acetate), less than 1 mg/mL; in data set [1] (iso-propanol, hydrochloride) it was 16 mg/mL. Further, the “Solubility (approximate)” value in data set [1] (methanol, hydrochloride) was determined as 50 mg/mL; in data set [1] (methyl ethyl ketone, hydrochloride), 64 mg/mL; in data set [1] (tetrahydrofuran (THF), hydrochloride) it was 100 mg/mL; in data set [1] (water, hydrochloride), 36 mg/mL. The “Solubility compared with the other forms (in words)” value in data set [1] (comparison between forms, listed as Amorphous material, hydrochloride) is “higher solubilities in most organic solvents and water compared to Forms A, B, and C”.
For `Cl.NCCc1c[nH]c(=S)n1[C@H]1COc2c(F)cc(F)cc2C1` [Form A, (R)-5-(2-Aminoethyl)-1-(6,8-difluorochroman-3-yl)-1,3-dihydroimidazole-2-thione hydrochloride], the solubility in data set [1] (1,4-dioxane:water 99:1, organic solvent or mixture, 1,4-dioxane:water 99:1, read-out: Solubility (approximate)) was less than 24 mg/mL; in data set [1] (acetone:water 90:10, organic solvent or mixture, acetone:water 90:10 (9:1), read-out: Solubility (approximate)) it was more than 23 mg/mL; in data set [1] (acetonitrile:water 90:10, organic solvent or mixture, acetonitrile:water 90:10 (9:1), read-out: Solubility (approximate)), more than 23 mg/mL; in data set [1] (acetonitrile:water 95:5, organic solvent or mixture, acetonitrile:water 95:5, read-out: Solubility (approximate)) it was less than 23 mg/mL; in data set [1] (ethanol:water 90:10, organic solvent or mixture, ethanol:water 90:10 (9:1), read-out: Solubility (approximate)) it was more than 21 mg/mL; in data set [1] (ethanol:water 99:1, organic solvent or mixture, ethanol:water 99:1, read-out: Solubility (approximate)), less than 25 mg/mL. Besides, the “Solubility (approximate)” value in data set [1] (setting [6]) came out at 1 mg/mL. Moreover, the Observations entry in data set [2] (~23% RH, 4 weeks) is given as “looks dry”; in data set [2] (~32% RH, 4 weeks) it was “looks dry”. The “% water” value in data set [3] (~9-11% RH, 11 days) stood at 1.70%; in data set [3] (~23% RH, 4 weeks), 2.96%; in data set [3] (~32% RH, 4 weeks), 3.24%. The Moles of water in data set [3] (~9-11% RH, 11 days) was found to be 0.33 mol; in data set [3] (~23% RH, 4 weeks), 0.59 mol; in data set [3] (~32% RH, 4 weeks), 0.65 mol. In addition, the “Stability at relative humidity” value was “stable” in data set [4] (31% relative humidity, after two weeks) and “stable” in data set [4] (43% relative humidity, after five days). In addition, the “Form conversion under high laboratory humidity” value in data set [4] (typically 43% to 90% relative humidity, within 1 day to 2 weeks) was “converts to Form B”.
For `Cl.NCCc1c[nH]c(=S)n1[C@H]1COc2c(F)cc(F)cc2C1` [Forms A and C, (R)-5-(2-Aminoethyl)-1-(6,8-difluorochroman-3-yl)-1,3-dihydroimidazole-2-thione hydrochloride], the “Form resulting from interconversion slurry” value in data set [5] (1-day slurries at room temperature, ethanol and acetone:water 99:1) was “mixture of Forms C and B, with Form B as a minor component”; in data set [5] (acetone:water 99:1, 40° C., 1-day slurry) it was “mixture of Forms C and A, with Form A as a minor component”; in data set [5] (after one week, ambient temperature and 40° C.) it was “Form C”; in data set [5] (ethanol, 40° C., 1-day slurry), “Form C”.
Take `Cl.NCCc1c[nH]c(=S)n1[C@H]1COc2c(F)cc(F)cc2C1` [Form B, (R)-5-(2-Aminoethyl)-1-(6,8-difluorochroman-3-yl)-1,3-dihydroimidazole-2-thione hydrochloride]: the “Solubility (approximate)” value in data set [1] (setting [6]) is reported as less than 29 mg/mL; in data set [1] (acetone, hydrochloride), 2 mg/mL; in data set [1] (acetonitrile:water 95:5, hydrochloride), less than 27 mg/mL; in data set [1] (ethanol:water 99:1, hydrochloride), less than 28 mg/mL; in data set [1] (ethanol, hydrochloride) it was 4 mg/mL; in data set [1] (methanol, hydrochloride), 15 mg/mL. The “Solubility by kind of solvent (in words)” value in data set [1] (organic solvents and aqueous mixtures, hydrochloride) is on record as “higher solubilities in aqueous solvent mixtures compared to organic solvents”. In addition, in data set [2] (high relative humidities, long periods of time), the “Stability under high relative humidities” value is listed as “remain stable”. In addition, the “Change in the water content on storage” value in data set [3] (after 2 days, 3 weeks and 8 weeks at both 75 and 90% RH) is given as “No significant changes”. Besides, the “% water” value in data set [3] (~55% RH, 8 days) amounted to 5.34%; in data set [3] (~75% RH, 3 weeks), 6.02%; in data set [3] (~75% RH, 8 weeks), 6.12%; in data set [3] (~75% RH, 2 days), 6.23%; in data set [3] (~90% RH, 3 weeks) it was 5.99%; in data set [3] (~90% RH, 8 weeks), 6.46%. The “% water” value in data set [3] (~90% RH, 2 days) was found to be 6.70%. Also, the Moles of water was 1.1 mol in data set [3] (~55% RH, 8 days); 1.24 mol in data set [3] (~75% RH, 3 weeks); 1.26 mol in data set [3] (~75% RH, 8 weeks); 1.28 mol in data set [3] (~75% RH, 2 days); 1.23 mol in data set [3] (~90% RH, 3 weeks); 1.33 mol in data set [3] (~90% RH, 8 weeks). The compound further gave a Moles of water in data set [3] (~90% RH, 2 days) of 1.39 mol. The “Stability at relative humidity” value in data set [4] (90% relative humidity) is “stable”. For the same compound, the Deliquescence result in data set [4] (90% relative humidity, after 10 days) is “no deliquescence was observed”. In addition, in data set [4] (after 2 days, 3, 7 and 8 weeks at both 75 and 90% RH), the “RH stability, XRPD patterns” value is given as “did not change”. In data set [4] (drying), the “Form conversion upon desorption (drying)” value is recorded as “convert back to Form A”. In addition, the “Weight change” value worked out at 10.7 mg in data set [4] (~55% RH, 8 days); 11.0 mg in data set [4] (~75% RH, 2 days); 11.6 mg in data set [4] (~90% RH, 2 days). In addition, the “Weight change, %” value in data set [4] (~55% RH, 8 days) was 9.5%; in data set [4] (~75% RH, 2 days) it was 4.5%; in data set [4] (~90% RH, 2 days), 4.6%. Moreover, the Observations result was “looks dry” in data set [4] (~55% RH, 8 days (Table 32)); “looks dry” in data set [4] (~55% RH, 8 days (Table 33)); “looks dry” in data set [4] (~75% RH, 3 weeks (Table 32)); “looks dry” in data set [4] (~75% RH, 3 weeks (Table 33)); “looks dry” in data set [4] (~75% RH, 7 weeks); “looks dry” in data set [4] (~75% RH, 8 weeks (Table 32)). In addition, the Observations result in data set [4] (~75% RH, 8 weeks (Table 33)) is on record as “looks dry”; in data set [4] (~90% RH, 3 weeks (Table 32)), “looks dry”; in data set [4] (~90% RH, 3 weeks (Table 33)), “looks dry”; in data set [4] (~90% RH, 7 weeks), “looks dry”; in data set [4] (~90% RH, 8 weeks (Table 32)) it was “looks dry”; in data set [4] (~90% RH, 8 weeks (Table 33)), “looks dry”.
Consider `Cl.NCCc1c[nH]c(=S)n1[C@H]1COc2c(F)cc(F)cc2C1` [Form X, (R)-5-(2-Aminoethyl)-1-(6,8-difluorochroman-3-yl)-1,3-dihydroimidazole-2-thione hydrochloride], for which the Observations entry in data set [2] (90% RH, 5 weeks (Table 34)) is reported as “looks dry”; in data set [4] (43% RH, 5 weeks (Table 34)), “looks dry”; in data set [4] (75% RH, 5 weeks (Table 34)) it was “looks dry”; in data set [4] (~43% RH, 5 weeks (Table 35)), “looks dry”; in data set [4] (~43% RH, 7 days), “looks dry”; in data set [4] (~75% RH, 5 weeks (Table 35)) it was “looks dry”. Also, the Observations entry is recorded as “looks dry” in data set [4] (~75% RH, 7 days); “looks dry” in data set [4] (~90% RH, 5 weeks (Table 35)); “looks dry” in data set [4] (~90% RH, 7 days). In addition, the “Form conversion at high relative humidity” value in data set [2] (90% RH, after 4 days and 5 weeks) is listed as “converted to Form B”. The “% water” value in data set [3] (43% RH, 5 weeks) turned out to be 5.52%; in data set [3] (75% RH, 5 weeks) it was 8.74%; in data set [3] (90% RH, 5 weeks) it was 6.47%. In addition, the Moles of water was determined as 1.13 mol in data set [3] (43% RH, 5 weeks); 1.85 mol in data set [3] (75% RH, 5 weeks); 1.34 mol in data set [3] (90% RH, 5 weeks). Further, the “Change by XRPD on drying” value in data set [4] (after 6 days and 2 weeks of drying at approximately 70° C.) was “did not change”. The “Weight change” value in data set [4] (~43% RH, 7 days) worked out at 1.2 mg; in data set [4] (~75% RH, 7 days), 2.4 mg; in data set [4] (~90% RH, 1 day), 2.3 mg; in data set [4] (~90% RH, 7 days), 0.9 mg. In addition, the “Weight change, %” value in data set [4] (~43% RH, 7 days) is 3.4%; in data set [4] (~75% RH, 7 days), 6.0%; in data set [4] (~90% RH, 1 day), 5.6%; in data set [4] (~90% RH, 7 days) it was 2.1%.
